In patent publication US9745265B2, “4-heteroaryl substituted benzoic acid compounds as RORgammaT inhibitors and uses thereof” (Merck Sharp & Dohme Corp., priority 2012, dated 2017) one finds IC50 data, which are given here for 15 molecules.

SMILES strings stand for the structures.

For the first test, the target named is human RORgammaT-Ligand Binding Domain (LBD) (Homo sapiens (Human), UniProt P51449). Kind of test: RORγ-Ligand Binding Domain TR-FRET Assay (SRC1_2 co-activator peptide). Type of test: biochemical.
human RORgammaT-Ligand Binding Domain (LBD), sequence (P51449 269-508): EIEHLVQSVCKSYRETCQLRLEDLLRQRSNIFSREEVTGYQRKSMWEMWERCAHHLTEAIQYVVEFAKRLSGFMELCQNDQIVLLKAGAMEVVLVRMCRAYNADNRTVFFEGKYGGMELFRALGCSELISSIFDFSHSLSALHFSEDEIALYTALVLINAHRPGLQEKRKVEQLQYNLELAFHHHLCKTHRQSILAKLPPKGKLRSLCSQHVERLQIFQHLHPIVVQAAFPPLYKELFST
Conditions: not given
Take `CS(=O)(=O)Nc1cc(-c2nn(C(=O)c3c(Cl)cccc3C(F)(F)F)c3cccnc23)ccc1C(=O)O` [Example 3B, 4-(1-(2-chloro-6-(trifluoromethyl)benzoyl)-1H-pyrazolo[4,3-b]pyridin-3-yl)-2-(methylsulfonamido)benzoic acid]: the IC50 worked out at 1.65 µM.

Take `O=C(O)c1ccc(-c2nn(C(=O)c3cccc4ccoc34)c3ccccc23)c(F)c1` [Example 1S, 4-[1-(1-benzofuran-7-ylcarbonyl)-1H-indazol-3-yl]-3-fluorobenzoic acid]: the IC50 came out at 1.48 µM. Still for that read-out and setting: for `O=C(O)c1ccc(-c2nn(C(=O)c3c(Cl)cccc3OC3CC3)c3ccccc23)cc1` [Example 1H, 4-(1-(2-chloro-6-cyclypropoxybenzoyl)-1H-indazol-3-yl)benzoic acid] the value was 0.039 µM; for `COCC(=O)n1nc(-c2ccc(C(=O)O)cc2F)c2ccccc21` [Example 1J, 3-fluoro-4-[1-(methoxy-acetyl)-1H-indazol-3-yl]benzoic acid], 5.57 µM; for `CC(C(=O)n1nc(-c2ccc(C(=O)O)cc2F)c2ccccc21)c1ccccc1` (stereo not drawn) [Example 1I, 3-fluoro-4-(1-(2-phenylpropanoyl)-1H-indazol-3-yl)benzoic acid], 4.32 µM.

With `C[C@@H]1CN(C(=O)c2ccc3c(-c4ccc(C(=O)O)cc4F)nn(C(=O)c4c(Cl)cccc4C(F)(F)F)c3c2)C[C@H](C)O1` [Example 2B, 4-(1-(2-chloro-6-(trifluoromethyl)benzoyl)-6-((2S,6R)-2,6-dimethylmorpholine-4-carbonyl)-1H-indazol-3-yl)-3-fluorobenzoic acid], the IC50 is 0.015 µM.

Still in this test, the particulars now being: HIS-tagged RORγ-LBD 3 nM, biotinylated SRC1 LXXLL peptide 100 nM, incubated overnight at 4° C., 665/615 nm ratio.
`Cc1cc(N(C)C)cc(Cl)c1C(=O)n1nc(-c2ccc(C(=O)O)cc2F)c2ncccc21` [Example 42A, 4-(1-(2-chloro-4-(dimethylamino)-6-methylbenzoyl)-1H-pyrazolo[4,3-b]pyridin-3-yl)-3-fluorobenzoic acid]: the IC50 is 2.32 µM. Still for that read-out and setting: in the case of `O=C(O)c1ccc(-c2nn(C(=O)c3c(Cl)cccc3C(F)(F)F)c3cc(N4CCOCC4)ccc23)cc1` [Example 4H, 4-(1-(2-chloro-6-(trifluoromethyl)benzoyl)-6-morpholino-1H-indazol-3-yl)benzoic acid] it was 4.32 µM. The same measure, in the same setting: in the case of `CC(O)C#Cc1ccc2c(-c3ccc(C(=O)O)cc3F)nn(C(=O)c3c(Cl)cccc3C(F)(F)F)c2c1` (stereo not drawn) [Example 12A, 4-(1-(2-chloro-6-(trifluoromethyl)benzoyl)-6-(3-hydroxybut-1-ynyl)-1H-indazol-3-yl)-3-fluorobenzoic acid] it was 0.105 µM; in that of `CC(C)(C)OC(=O)Nc1cc2c(-c3ccc(C(=O)O)cc3F)cn(C(=O)c3c(Cl)cccc3C(F)(F)F)c2cn1` [Example 28A, 4-(5-(tert-butoxycarbonylamino)-1-(2-chloro-6-(trifluoromethyl)benzoyl)-1H-pyrrolo[2,3-c]pyridin-3-yl)-3-fluorobenzoic acid], 0.182 µM; in that of `Cc1cc(N2CCOCC2)cc(Cl)c1C(=O)n1nc(-c2ccc(C(=O)O)cc2F)c2ncccc21` [Example 40A, 4-(1-(2-chloro-6-methyl-4-morpholinobenzoyl)-1H-pyrazolo[4,3-b]pyridin-3-yl)-3-fluorobenzoic acid], 6.87 µM. Same read-out and setting: in the case of `CC(=O)Nc1cc(-c2nn(C(=O)c3c(Cl)cccc3C(F)(F)F)c3ccccc23)ccc1C(=O)O` [Example 3A, 2-acetamido-4-(1-(2-chloro-6-(trifluoromethyl)benzoyl)-1H-indazol-3-yl)benzoic acid] it was 1.47 µM. For `O=C1CCN(C(=O)c2ccc3c(-c4ccc(C(=O)O)cc4F)nn(C(=O)c4c(Cl)cccc4C(F)(F)F)c3c2)CC1` [Example 2C, 4-(1-(2-chloro-6-(trifluoromethyl)benzoyl)-6-(4-oxopiperidine-1-carbonyl)-1H-indazol-3-yl)-3-fluorobenzoic acid], the IC50 is 0.004 µM. Take `CC(C)(C)OC(=O)Nc1cnc2c(-c3ccc(C(=O)O)cc3F)nn(C(=O)c3c(Cl)cccc3C(F)(F)F)c2c1` [Example 29A, 4-(6-(tert-butoxycarbonylamino)-1-(2-chloro-6-(trifluoromethyl)benzoyl)-1H-pyrazolo[4,3-b]pyridin-3-yl)-3-fluorobenzoic acid]: the IC50 worked out at 0.191 µM. On the same count and under the same terms, for `CN(c1ccc2c(-c3ccc(C(=O)O)cc3F)nn(C(=O)c3c(Cl)cccc3C(F)(F)F)c2c1)S(C)(=O)=O` [Example 5G, 4-(1-(2-chloro-6-(trifluoromethyl)benzoyl)-6-(N-methylmethylsulfonamido)-1H-indazol-3-yl)-3-fluorobenzoic acid] the value was 1.5 µM.
